# Columns and labels:
# [1] = biological target: Prostaglandin G/H synthase 1 (Homo sapiens, UniProt P23219); test: biochemical; assay type: tissue-based, Platelet;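 note: inhibition of COX-1 enzyme activity, with arachidonic acid supplied as substrate; in other assays of this panel Not Active means under 50% inhibition at 10 µM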
# [2] = biological target: 5-hydroxytryptamine receptor 2B (Homo sapiens, UniProt P41595); assay type: cell membranes, CHO-K1, Membrane; note: in other assays of this panel Not Active means under 50% inhibition at 10 µM
# [3] = biological target: Voltage-gated inwardly rectifying potassium channel KCNH2 (Homo sapiens, UniProt Q12809); details: hek293; note: in other assays of this panel Not Active means under 50% inhibition at 10 µM
# [4] = DRUGMATRIX: Phorbol Ester radioligand binding (ligand: [3H] PDBu); assay type: cell membranes, Mus musculus, ICR, Brain, Membrane; details: Not Active = under 50% inhibition at 10 µM
# [5] = biological target: T1, Muscarinic acetylcholine receptor M4 (Homo sapiens, UniProt P08173); assay type: cell membranes, CHO-K1, Membrane; details: cho-k1; note: in other assays of this panel Not Active means under 50% inhibition at 10 µM
# T1 sequence (P08173 whole entry): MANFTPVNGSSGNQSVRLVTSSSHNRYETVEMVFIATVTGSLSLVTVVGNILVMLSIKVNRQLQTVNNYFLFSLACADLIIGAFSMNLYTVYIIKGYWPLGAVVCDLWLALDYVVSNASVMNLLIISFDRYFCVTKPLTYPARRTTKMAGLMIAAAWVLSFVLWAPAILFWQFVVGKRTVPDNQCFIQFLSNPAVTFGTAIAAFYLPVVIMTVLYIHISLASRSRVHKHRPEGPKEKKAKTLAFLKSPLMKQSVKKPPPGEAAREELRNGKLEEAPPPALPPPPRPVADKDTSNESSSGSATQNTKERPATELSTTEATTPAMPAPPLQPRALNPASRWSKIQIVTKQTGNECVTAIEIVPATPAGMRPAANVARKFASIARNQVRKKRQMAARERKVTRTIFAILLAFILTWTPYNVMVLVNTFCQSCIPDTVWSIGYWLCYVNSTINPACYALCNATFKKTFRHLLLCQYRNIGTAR
# [6] = biological target: Matrix metalloproteinase-9 (Homo sapiens, UniProt P14780); test: biochemical; assay type: cell-based
# [7] = biological target: Mitogen-activated protein kinase 3 (Homo sapiens, UniProt P27361); test: DRUGMATRIX: Protein Serine/Threonine Kinase, ERK1 enzyme inhibition (substrate: Myelin Basic Protein); design: species or system Escherichia coli; details: Not Active = under 50% inhibition at 10 µM
# Chain of Mitogen-activated protein kinase 3 (P27361 whole entry): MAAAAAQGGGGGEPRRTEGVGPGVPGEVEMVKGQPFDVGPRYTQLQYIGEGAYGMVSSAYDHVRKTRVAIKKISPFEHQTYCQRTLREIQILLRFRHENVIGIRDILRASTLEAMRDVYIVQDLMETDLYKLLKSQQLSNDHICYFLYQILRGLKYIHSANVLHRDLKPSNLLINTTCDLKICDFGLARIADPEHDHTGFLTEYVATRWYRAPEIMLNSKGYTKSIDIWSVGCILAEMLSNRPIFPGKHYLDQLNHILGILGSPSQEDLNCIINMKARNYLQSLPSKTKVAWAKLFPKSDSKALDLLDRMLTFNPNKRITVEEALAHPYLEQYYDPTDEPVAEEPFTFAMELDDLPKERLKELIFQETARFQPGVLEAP
# Chain of 5-hydroxytryptamine receptor 2B (P41595 whole entry): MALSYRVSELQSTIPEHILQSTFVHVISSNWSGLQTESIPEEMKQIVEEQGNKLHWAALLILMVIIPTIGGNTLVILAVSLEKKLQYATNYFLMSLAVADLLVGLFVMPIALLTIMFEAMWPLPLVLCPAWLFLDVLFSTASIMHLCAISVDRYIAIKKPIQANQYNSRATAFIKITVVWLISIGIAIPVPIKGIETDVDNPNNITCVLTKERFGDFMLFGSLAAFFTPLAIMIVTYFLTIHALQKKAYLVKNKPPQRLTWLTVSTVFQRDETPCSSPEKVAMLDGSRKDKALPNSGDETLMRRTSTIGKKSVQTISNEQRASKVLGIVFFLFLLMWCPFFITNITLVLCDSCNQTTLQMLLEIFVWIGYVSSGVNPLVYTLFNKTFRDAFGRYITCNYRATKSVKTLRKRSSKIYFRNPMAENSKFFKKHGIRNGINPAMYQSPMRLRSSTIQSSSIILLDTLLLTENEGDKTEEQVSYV
# Chain of Voltage-gated inwardly rectifying potassium channel KCNH2 (Q12809 whole entry): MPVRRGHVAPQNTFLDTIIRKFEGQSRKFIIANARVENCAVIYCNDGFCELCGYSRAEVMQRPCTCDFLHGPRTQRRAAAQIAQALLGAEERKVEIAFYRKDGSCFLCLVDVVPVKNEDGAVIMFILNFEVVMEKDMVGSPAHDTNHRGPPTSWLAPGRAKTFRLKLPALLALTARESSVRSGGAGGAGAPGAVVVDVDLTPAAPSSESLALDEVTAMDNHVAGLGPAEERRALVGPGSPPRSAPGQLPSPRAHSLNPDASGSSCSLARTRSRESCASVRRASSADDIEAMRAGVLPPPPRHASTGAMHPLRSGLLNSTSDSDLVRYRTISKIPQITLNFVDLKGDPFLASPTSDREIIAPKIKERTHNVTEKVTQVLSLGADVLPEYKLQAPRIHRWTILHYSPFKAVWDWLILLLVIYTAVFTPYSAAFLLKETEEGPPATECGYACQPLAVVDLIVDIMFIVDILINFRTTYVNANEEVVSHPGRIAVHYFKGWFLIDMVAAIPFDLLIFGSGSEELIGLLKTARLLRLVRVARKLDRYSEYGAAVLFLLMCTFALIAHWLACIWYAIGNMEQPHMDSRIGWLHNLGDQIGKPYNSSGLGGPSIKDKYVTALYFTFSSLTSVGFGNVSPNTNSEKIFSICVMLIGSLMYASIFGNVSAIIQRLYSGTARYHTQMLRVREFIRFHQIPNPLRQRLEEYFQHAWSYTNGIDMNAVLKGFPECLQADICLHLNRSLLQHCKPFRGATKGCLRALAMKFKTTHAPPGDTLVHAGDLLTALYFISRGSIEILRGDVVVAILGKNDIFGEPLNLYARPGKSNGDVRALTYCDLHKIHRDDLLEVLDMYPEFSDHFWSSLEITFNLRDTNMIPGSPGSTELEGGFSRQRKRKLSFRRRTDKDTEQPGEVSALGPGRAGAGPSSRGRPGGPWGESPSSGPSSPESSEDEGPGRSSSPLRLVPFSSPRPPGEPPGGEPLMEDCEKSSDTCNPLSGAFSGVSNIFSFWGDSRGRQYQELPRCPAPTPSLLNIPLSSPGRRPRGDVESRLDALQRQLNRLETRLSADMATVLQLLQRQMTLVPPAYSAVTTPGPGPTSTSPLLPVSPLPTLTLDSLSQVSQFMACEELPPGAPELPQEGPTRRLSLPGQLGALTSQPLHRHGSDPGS
# Chain of Matrix metalloproteinase-9 (P14780 whole entry): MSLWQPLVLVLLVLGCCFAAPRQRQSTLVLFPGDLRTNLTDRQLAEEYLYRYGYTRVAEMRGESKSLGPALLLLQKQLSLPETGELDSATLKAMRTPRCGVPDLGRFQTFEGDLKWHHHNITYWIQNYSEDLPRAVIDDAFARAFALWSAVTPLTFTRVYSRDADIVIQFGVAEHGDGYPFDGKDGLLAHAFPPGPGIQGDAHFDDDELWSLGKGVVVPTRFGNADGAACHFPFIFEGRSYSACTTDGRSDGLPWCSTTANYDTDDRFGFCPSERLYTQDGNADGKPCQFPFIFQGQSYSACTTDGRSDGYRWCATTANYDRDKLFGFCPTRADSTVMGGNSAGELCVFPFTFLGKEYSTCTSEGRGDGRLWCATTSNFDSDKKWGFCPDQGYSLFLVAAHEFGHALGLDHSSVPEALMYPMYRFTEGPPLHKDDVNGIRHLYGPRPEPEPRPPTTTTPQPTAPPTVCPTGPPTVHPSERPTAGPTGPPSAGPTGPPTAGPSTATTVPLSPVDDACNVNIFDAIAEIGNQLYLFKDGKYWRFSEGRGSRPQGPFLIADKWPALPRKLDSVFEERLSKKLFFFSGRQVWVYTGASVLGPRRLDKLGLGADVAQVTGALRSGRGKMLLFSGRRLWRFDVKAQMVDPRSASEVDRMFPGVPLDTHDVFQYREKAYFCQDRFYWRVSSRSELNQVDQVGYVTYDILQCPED
# Chain of Prostaglandin G/H synthase 1 (P23219 whole entry): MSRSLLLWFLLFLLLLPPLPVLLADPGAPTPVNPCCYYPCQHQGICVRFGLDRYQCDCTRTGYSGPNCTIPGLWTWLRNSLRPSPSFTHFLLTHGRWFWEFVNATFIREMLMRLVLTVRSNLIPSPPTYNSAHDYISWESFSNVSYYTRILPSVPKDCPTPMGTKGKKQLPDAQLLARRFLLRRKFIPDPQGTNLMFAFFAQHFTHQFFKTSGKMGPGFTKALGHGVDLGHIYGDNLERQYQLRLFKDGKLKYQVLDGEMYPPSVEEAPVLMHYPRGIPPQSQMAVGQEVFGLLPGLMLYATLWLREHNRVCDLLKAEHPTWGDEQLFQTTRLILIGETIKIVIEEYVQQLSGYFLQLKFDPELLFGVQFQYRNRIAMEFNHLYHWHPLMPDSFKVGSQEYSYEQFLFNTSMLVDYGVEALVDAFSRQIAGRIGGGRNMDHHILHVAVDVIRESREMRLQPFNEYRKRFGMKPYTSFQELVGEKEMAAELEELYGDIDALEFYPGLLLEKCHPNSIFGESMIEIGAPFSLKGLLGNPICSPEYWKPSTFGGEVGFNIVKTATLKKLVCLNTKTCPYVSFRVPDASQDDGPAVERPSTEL
Compound,IC50 ([1]; platelet),IC50 ([2]; cho-k1),IC50 [3],Ki [3],IC50 [4],Ki [4],IC50 [5],IC50 [6],IC50 [7],IC50 ([7]; read-out: IC50),Ki ([1]; platelet),Ki ([2]; cho-k1),Ki [5],Ki [6],Ki [7],IC50 ([1]; read-out: IC50),IC50 ([2]; read-out: IC50),Ki ([2]; read-out: Ki)
CC(C)(Sc1cc(C(C)(C)C)c(O)c(C(C)(C)C)c1)Sc1cc(C(C)(C)C)c(O)c(C(C)(C)C)c1 [PROBUCOL],Not Active,Not Active,Not Active,Not Active,Not Active,Not Active,Not Active,Not Active,Not Active,,,,,,,,,
[N-]=[N+]=CC(=O)OC[C@H](N)C(=O)O [AZASERINE],Not Active,Not Active,Not Active,Not Active,Not Active,Not Active,Not Active,Not Active,Not Active,,,,,,,,,
CCOC(=O)C1=C(C)NC(C)=C(C(=O)OC)C1c1cccc(Cl)c1Cl (stereo not given) [FELODIPINE],Not Active,Not Active,Not Active,Not Active,Not Active,Not Active,Not Active,Not Active,Not Active,,,,,,,,,
Cc1cn[nH]c1 [FOMEPIZOLE],Not Active,Not Active,Not Active,Not Active,Not Active,Not Active,Not Active,Not Active,Not Active,,,,,,,,,
O=c1cc(-c2ccccc2)oc2ccc3ccccc3c12 [BETA-NAPHTHOFLAVONE],Not Active,Not Active,Not Active,Not Active,Not Active,Not Active,Not Active,Not Active,,5470 nM,,,,,,,,
CO[C@H]1[C@@H](O)[C@H](N)[C@@H](O[C@H]2O[C@H]([C@H](C)N)CC[C@H]2N)[C@H](O)[C@@H]1N(C)C(=O)CN [ASTROMICIN],Not Active,Not Active,Not Active,Not Active,Not Active,Not Active,Not Active,Not Active,Not Active,,,,,,,,,
CCn1cc(C(=O)O)c(=O)c2cc(F)c(N3CCNCC3)nc21 [ENOXACIN],Not Active,Not Active,Not Active,Not Active,Not Active,Not Active,Not Active,Not Active,Not Active,,,,,,,,,
CCC(=O)O[C@H]1[C@H](O[C@@H]2[C@@H](C)[C@H](O[C@H]3C[C@@](C)(OC)[C@@H](O)[C@H](C)O3)[C@@H](C)C(=O)O[C@H](CC)[C@@](C)(O)[C@H](O)[C@@H](C)C(=O)[C@H](C)C[C@@]2(C)O)O[C@H](C)C[C@@H]1N(C)C [ERYTHROMYCIN PROPIONATE],Not Active,Not Active,Not Active,Not Active,Not Active,Not Active,Not Active,Not Active,Not Active,,,,,,,,,
COBALT(II) ACETYLACETONATE,Not Active,Not Active,Not Active,Not Active,Not Active,Not Active,Not Active,Not Active,Not Active,,Not Active,Not Active,Not Active,Not Active,Not Active,,,
N[C@@H](Cc1ccc(F)cc1)C(=O)O,Not Active,Not Active,Not Active,Not Active,Not Active,Not Active,Not Active,Not Active,Not Active,,,,,,,,,
O=C(O)Cc1ccc(-c2ccccc2)cc1 [FELBINAC],,Not Active,Not Active,Not Active,Not Active,Not Active,Not Active,Not Active,Not Active,,,,,,,894 nM,,
NC[C@H]1O[C@H](O[C@H]2[C@H](O)[C@@H](O[C@H]3O[C@H](CO)[C@@H](O)[C@H](N)[C@H]3O)[C@H](N)C[C@@H]2N)[C@H](O)[C@@H](O)[C@@H]1O [KANAMYCIN],Not Active,Not Active,Not Active,Not Active,Not Active,Not Active,Not Active,Not Active,Not Active,,,,,,,,,
N=C(N)N/N=C/c1c(Cl)cccc1Cl [GUANABENZ],Not Active,,Not Active,Not Active,Not Active,Not Active,Not Active,Not Active,Not Active,,,,,,,,97 nM,62 nM
C[C@]12CCC(=O)C=C1CC[C@@H]1[C@@H]2[C@@H](O)C[C@@]2(C)[C@H]1CC[C@]2(O)C(=O)CO [HYDROCORTISONE],Not Active,Not Active,Not Active,Not Active,Not Active,Not Active,Not Active,Not Active,Not Active,,,,,,,,,
Nc1nc(N)nc(NC2CC2)n1 [CYROMAZINE],Not Active,Not Active,Not Active,Not Active,Not Active,Not Active,Not Active,Not Active,Not Active,,,,,,,,,
OCCO [ETHYLENE GLYCOL],Not Active,Not Active,Not Active,Not Active,Not Active,Not Active,Not Active,Not Active,Not Active,,,,,,,,,
CCN[C@@H](C)Cc1cccc(C(F)(F)F)c1 [DEXFENFLURAMINE],Not Active,Not Active,Not Active,Not Active,Not Active,Not Active,Not Active,Not Active,Not Active,,,,,,,,,
C[C@]12C/C(=C/O)C(=O)C[C@@H]1CC[C@@H]1[C@@H]2CC[C@@]2(C)[C@H]1CC[C@]2(C)O [OXYMETHOLONE],Not Active,Not Active,Not Active,Not Active,Not Active,Not Active,Not Active,Not Active,Not Active,,,,,,,,,
C=C(CC)C(=O)c1ccc(OCC(=O)O)c(Cl)c1Cl [ETHACRYNIC ACID],Not Active,Not Active,Not Active,Not Active,Not Active,Not Active,Not Active,Not Active,Not Active,,,,,,,,,
CCOC(=O)[C@H](CCc1ccccc1)N[C@@H](C)C(=O)N1Cc2ccccc2C[C@H]1C(=O)O,Not Active,Not Active,Not Active,Not Active,Not Active,Not Active,Not Active,Not Active,Not Active,,,,,,,,,
CCc1oc2ccccc2c1C(=O)c1cc(Br)c(O)c(Br)c1 [BENZBROMARONE],Not Active,,Not Active,Not Active,Not Active,Not Active,Not Active,Not Active,Not Active,,,,,,,,1800 nM,1150 nM
CC[C@H]1OC(=O)[C@H](C)[C@@H](O[C@H]2C[C@@](C)(OC)[C@@H](O)[C@H](C)O2)[C@H](C)[C@@H](O[C@@H]2O[C@H](C)C[C@H](N(C)C)[C@H]2O)[C@](C)(OC)C[C@@H](C)C(=O)[C@H](C)[C@@H](O)[C@]1(C)O [CLARITHROMYCIN],Not Active,Not Active,Not Active,Not Active,Not Active,Not Active,Not Active,Not Active,Not Active,,,,,,,,,
